# Results taken from patent US12622916B2, “Use of H3K9me3 modulation for enhancing cognitive function” (THE REGENTS OF THE UNIVERSITY OF CALIFORNIA, priority 2015, dated 2026).
# Columns and labels:
# [1] = system: hippocampal synaptosomes; assay: Flow synaptometry of hippocampal synaptosomes of aged mice; format: in vivo; settings: 10 mg/kg i.p.
# Experimental: Spine counts: In another series of experiments 10 aged mice (20-22 months) were injected with ETP69 (10 mg/kg; i.p) or vehicle (i.p) and 24 hours later the animals were euthanized and the brains were separated into two hemispheres. Right hemisphere was used for Golgi staining and the left was processed for flow synaptometry. Staining was conducted according to manufacturer's information (Golgi-Cox, Bioenna).
# Flow Synaptometry: Fresh synaptosome P2 fractions were obtained from whole mouse hippocampus using our long-standing protocol. Briefly, the fractions were obtained from the hippocampus by homogenizing tissue (1:10 w/v) in ice-cold sucrose 320 mM. All the steps were carried out at 4° C.; sucrose buffer, grinder, pestle and microfuge tubes were all pre-cooled on ice. Hippocampi were rapidly dissected from a single mouse and homogenized in 320 mM sucrose (1.5 ml) containing HEPES [10 mM] and protease/phosphatase inhibitors cocktail, pH 7.4. Homogenization consisted of 6-8 manual strokes in a glass-Teflon grinder, clearance (between plunger and glass): 0.15-0.25 mm. Plunger was gently rotated during strokes while the grinder was kept on ice. The homogenate was centrifuged at 1200 g for 10 min. Supernatant (S1, containing mitochondria and synaptosomes) was transferred into two clean microfuge tubes and centrifuged at 12,000 g for 20 min. Supernatants (S2) were carefully removed using a plastic tip and vacuum. Pellets (P2, corresponding to the crude synaptosome fraction) were resuspended by gently pipetting up and down in 1.5 ml of PBS Protein concentration was determined using the BCA assay using bovine serum albumin (BSA) as standard. Before immunolabeling, all samples were adjusted to the same protein concentration using PBS as diluent. Immunolabeling for flow synaptometry analysis was performed according to a method for staining of extracellular/intracellular antigens using 200 ul of synaptosomal fractions (50-100 μg protein). Antibodies: GluR1 (extracellular) (Millipore, ABN241, DIL=1:400), p-Akt-ser473 (Cell Signaling, 4060, DIL=1:400), PSD-95 (Millipore, MAB1598, DIL=1:400), anti-rabbit IgG Alexa-488 ad anti-mouse IgG Alexa 647 (Life Science, DIL=1:400). […] Relative size and granularity was determined by forward (FSC) and side scatter (SSC) properties. […] Alexa 488 and Alexa 647 fluorochromes were detected by the FL1 and FL4 detectors, respectively. […] Ten thousand size-gated particles were collected and analyzed for each sample. […]
# Next, we studied the influence of ETP69 on synapses using flow synaptometry, an innovative approach to molecularly characterize isolated synaptosomes (presynaptic terminals attached to post-synaptic dendritic spines). […] After drug treatment, hippocampal synaptosome fractions were immunostained and analyzed by flow synaptometry. […]
# [2] = molecular target: histone acetyltransferase p300 (Homo sapiens, UniProt Q09472); assay: Inhibitory activity towards histone acetyltransferase p300; format: biochemical
# Sequence of histone acetyltransferase p300 (Q09472 whole entry, species assumed): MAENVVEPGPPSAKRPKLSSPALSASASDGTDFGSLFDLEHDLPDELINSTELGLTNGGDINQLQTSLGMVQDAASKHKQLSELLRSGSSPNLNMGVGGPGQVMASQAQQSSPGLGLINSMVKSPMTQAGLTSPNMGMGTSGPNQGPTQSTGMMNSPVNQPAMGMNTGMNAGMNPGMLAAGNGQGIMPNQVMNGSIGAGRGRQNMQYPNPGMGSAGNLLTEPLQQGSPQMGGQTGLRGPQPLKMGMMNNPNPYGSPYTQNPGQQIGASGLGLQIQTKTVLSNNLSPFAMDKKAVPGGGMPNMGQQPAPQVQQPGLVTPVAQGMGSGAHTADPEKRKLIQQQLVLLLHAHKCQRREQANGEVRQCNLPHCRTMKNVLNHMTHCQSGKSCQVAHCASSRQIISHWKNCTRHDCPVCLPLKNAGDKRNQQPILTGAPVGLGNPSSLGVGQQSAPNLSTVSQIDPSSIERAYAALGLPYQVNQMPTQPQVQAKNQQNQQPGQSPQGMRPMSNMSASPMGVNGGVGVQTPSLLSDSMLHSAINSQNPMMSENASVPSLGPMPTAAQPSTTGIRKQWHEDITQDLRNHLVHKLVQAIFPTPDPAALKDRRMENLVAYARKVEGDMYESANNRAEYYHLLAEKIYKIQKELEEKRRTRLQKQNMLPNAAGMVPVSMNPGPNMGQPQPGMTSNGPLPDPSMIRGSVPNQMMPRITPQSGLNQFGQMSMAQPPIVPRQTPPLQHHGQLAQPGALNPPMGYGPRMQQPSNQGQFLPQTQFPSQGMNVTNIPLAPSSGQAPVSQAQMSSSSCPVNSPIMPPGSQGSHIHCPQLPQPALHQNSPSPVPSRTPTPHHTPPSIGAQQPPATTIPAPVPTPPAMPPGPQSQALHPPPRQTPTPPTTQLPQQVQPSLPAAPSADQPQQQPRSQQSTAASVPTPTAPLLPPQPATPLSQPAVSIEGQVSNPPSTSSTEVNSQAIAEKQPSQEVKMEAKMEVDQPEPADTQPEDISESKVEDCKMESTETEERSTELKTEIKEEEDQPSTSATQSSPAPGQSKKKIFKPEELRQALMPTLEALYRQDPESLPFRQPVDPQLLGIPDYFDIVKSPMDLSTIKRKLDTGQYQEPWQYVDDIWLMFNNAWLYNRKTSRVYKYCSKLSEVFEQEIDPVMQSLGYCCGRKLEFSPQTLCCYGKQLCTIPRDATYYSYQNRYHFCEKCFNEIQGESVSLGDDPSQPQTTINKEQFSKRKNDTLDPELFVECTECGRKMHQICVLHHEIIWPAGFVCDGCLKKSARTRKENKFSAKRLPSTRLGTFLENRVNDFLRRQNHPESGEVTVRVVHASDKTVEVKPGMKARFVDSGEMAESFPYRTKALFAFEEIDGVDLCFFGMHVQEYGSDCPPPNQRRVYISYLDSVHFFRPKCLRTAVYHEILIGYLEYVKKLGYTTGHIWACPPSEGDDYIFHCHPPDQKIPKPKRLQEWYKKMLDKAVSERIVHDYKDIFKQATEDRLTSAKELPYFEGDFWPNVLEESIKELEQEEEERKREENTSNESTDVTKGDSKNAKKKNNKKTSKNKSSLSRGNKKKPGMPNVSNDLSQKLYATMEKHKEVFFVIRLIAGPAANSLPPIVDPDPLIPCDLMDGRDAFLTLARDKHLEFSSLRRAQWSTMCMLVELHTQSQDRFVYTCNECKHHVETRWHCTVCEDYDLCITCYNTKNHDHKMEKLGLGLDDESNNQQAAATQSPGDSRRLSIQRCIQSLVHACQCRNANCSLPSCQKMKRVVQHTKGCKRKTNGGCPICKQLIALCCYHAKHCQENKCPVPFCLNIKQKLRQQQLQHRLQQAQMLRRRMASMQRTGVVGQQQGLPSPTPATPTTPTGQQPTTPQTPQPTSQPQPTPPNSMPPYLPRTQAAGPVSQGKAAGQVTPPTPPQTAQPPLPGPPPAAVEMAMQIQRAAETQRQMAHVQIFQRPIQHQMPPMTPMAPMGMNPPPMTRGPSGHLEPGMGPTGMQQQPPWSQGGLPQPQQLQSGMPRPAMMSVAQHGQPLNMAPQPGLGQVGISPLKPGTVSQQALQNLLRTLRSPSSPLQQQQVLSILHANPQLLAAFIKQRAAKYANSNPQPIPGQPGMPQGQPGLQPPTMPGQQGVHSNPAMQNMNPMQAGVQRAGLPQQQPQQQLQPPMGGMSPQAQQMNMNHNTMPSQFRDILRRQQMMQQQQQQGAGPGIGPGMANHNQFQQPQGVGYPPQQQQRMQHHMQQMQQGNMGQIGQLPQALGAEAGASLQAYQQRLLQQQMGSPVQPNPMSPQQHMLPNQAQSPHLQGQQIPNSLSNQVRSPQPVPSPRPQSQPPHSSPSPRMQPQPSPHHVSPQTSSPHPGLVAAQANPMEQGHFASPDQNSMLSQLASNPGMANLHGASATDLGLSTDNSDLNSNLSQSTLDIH
# Source text: In accordance with one or more embodiments of the present invention, the role of H3K9me3 in learning and memory in an animal model of aging using a newly developed analog of the epidithiodiketopiperazine alkaloid chaetocin A called ETP69, illustrated in FIG. 1, is studied.
compound,measurement,setting,value
"CN1C(=O)[C@@]23C[C@](C)(C#N)[C@H](c4ccc5c(c4)OCO5)N2C(=O)[C@]1(C)SS3 (racemic) [ETP69, Rac-(3S,6S,7S,8aS)-6-(benzo[d][1,3]dioxol-5-yl)-2,3,7-trimethyl-1,4-dioxohexahydro-6H-3,8a-epidithiopyrrolo[1,2-a]pyrazine-7-carbonitrile]",PSD95 levels per particle (Mean Fluorescence of intensity),[1]; 24 hours,No detectable changes
same,proportion of size-gated synaptosomes expressing PSD95,[1]; 24 hours,increases the proportion of synaptosomes expressing PSD95
same,PSD95-positive events co-expressing surface GluR1,[1]; versus vehicle-treated controls,increase
same,proportion of events expressing both p-Akt and PSD-95,[1]; versus vehicle-treated mice,increased the proportion of events expressing both p-Akt and PSD-95
same,inhibitory activity towards histone acetyltransferase p300,[2],no inhibitory activity
